{"source": "patent US20240368694A1", "about": "(priority 2021, published 2024)", "key": {"[1]": {"system": "ssc-miR-16, ssc-miR-128, ssc-miR-205 and ssc-miR-451 in serum", "parameters": "species or system Sus scrofa", "settings": "in vivo"}, "[2]": {"system": "miRNA expression profiles in liver and jejunum", "parameters": "species or system Sus scrofa", "settings": "in vivo"}, "miRNAs in serum": {"system": "miRNAs in serum", "parameters": "species or system Sus scrofa", "settings": "in vivo"}, "[3]": {"system": "serum interleukins IL1β, IL-8, IL-13, tumor necrosis factor or interferon-gamma", "settings": "pigs, 3.3-3.8 ppm DON in feed (Pasternak et al. 2018); cited from earlier work"}, "[4]": {"settings": "pigs, cited from earlier work"}, "[5]": {"system": "insulin like growth factor 1 (IGF1)", "settings": "serum levels of growth hormones (Wang et al. 2019; Wu et al. 2013, 2015); cited from earlier work"}}, "data": [{"smiles": "CC1=C[C@H]2O[C@@H]3[C@H](O)C[C@](C)([C@@]2(CO)[C@H](O)C1=O)[C@]31CO1", "note": "[DON, (3α,7α)-3,7,15-trihydroxy-12,13-epoxytrichothec-9-en-8-one]", "values": [{"measurement": "ssc-miR-16 normalized Cq-value log 2 fold change in the DON groups compared to the Control", "setting": "[1]", "value": "increased"}, {"measurement": "ssc-miR-16 qPCR log2 fold change, DON_high vs Control", "setting": "[1]", "value": 2.227}, {"measurement": "ssc-miR-16 qPCR log2 fold change, DON_low vs Control", "setting": "[1]", "value": 3.504}, {"measurement": "ssc-miR-128 normalized Cq-value log 2 fold change in the DON groups compared to the Control", "setting": "[1]", "value": "increased"}, {"measurement": "ssc-miR-128 qPCR log2 fold change, DON_high vs Control", "setting": "[1]", "value": 1.879}, {"measurement": "ssc-miR-128 qPCR log2 fold change, DON_low vs Control", "setting": "[1]", "value": 3.885}, {"measurement": "ssc-miR-205 normalized Cq-value log 2 fold change in the DON groups compared to the Control", "setting": "[1]", "value": "increased"}, {"measurement": "ssc-miR-205 qPCR log2 fold change, DON_high vs Control", "setting": "[1]", "value": 2.455}, {"measurement": "ssc-miR-205 qPCR log2 fold change, DON_low vs Control", "setting": "[1]", "value": 4.973}, {"measurement": "ssc-miR-451 normalized Cq-value log 2 fold change in the DON groups compared to the Control", "setting": "[1]", "value": "increased"}, {"measurement": "ssc-miR-451 qPCR log2 fold change, DON_high vs Control", "setting": "[1]", "value": 1.835}, {"measurement": "ssc-miR-451 qPCR log2 fold change, DON_low vs Control", "setting": "[1]", "value": 2.663}, {"measurement": "differentially expressed miRNAs in liver, Control vs DON high", "setting": "[2]", "value": "one differentially expressed miRNA, namely ssc-miR-10b"}, {"measurement": "differentially expressed miRNAs in tissues, Control vs DON low", "setting": "[2]", "value": "no differentially expressed miRNAs"}, {"measurement": "effect on the miRNA expression profiles in liver and jejunum", "setting": "[2]", "value": "did not exhibit a strong effect"}, {"measurement": "number of serum miRNAs significantly altered in both DON low and DON high", "setting": "miRNAs in serum", "value": "eight"}, {"measurement": "number of serum miRNAs significantly altered, DON high vs Control", "setting": "miRNAs in serum", "value": 16}, {"measurement": "number of serum miRNAs significantly altered, DON low vs Control", "setting": "miRNAs in serum", "value": 15}, {"measurement": "ssc-let-7a Log2 fold vs Control, DON high", "setting": "miRNAs in serum", "value": "−0.502"}, {"measurement": "ssc-let-7a Log2 fold vs Control, DON low", "setting": "miRNAs in serum", "value": "n.s."}, {"measurement": "ssc-let-7f-5p Log2 fold vs Control, DON high", "setting": "miRNAs in serum", "value": "−0.503"}, {"measurement": "ssc-let-7f-5p Log2 fold vs Control, DON low", "setting": "miRNAs in serum", "value": "n.s."}, {"measurement": "ssc-let-7g Log2 fold vs Control, DON high", "setting": "miRNAs in serum", "value": 0.662}, {"measurement": "ssc-let-7g Log2 fold vs Control, DON low", "setting": "miRNAs in serum", "value": "n.s."}, {"measurement": "ssc-miR-10a-5p Log2 fold vs Control, DON high", "setting": "miRNAs in serum", "value": "n.s."}, {"measurement": "ssc-miR-10a-5p Log2 fold vs Control, DON low", "setting": "miRNAs in serum", "value": "−0.806"}, {"measurement": "ssc-miR-10b Log2 fold vs Control, DON high", "setting": "miRNAs in serum", "value": "−0.754"}, {"measurement": "ssc-miR-10b Log2 fold vs Control, DON low", "setting": "miRNAs in serum", "value": "−1.129"}, {"measurement": "ssc-miR-10b direction of change in serum upon DON treatment", "setting": "miRNAs in serum", "value": "down-regulated"}, {"measurement": "ssc-miR-16 Log2 fold vs Control, DON high", "setting": "miRNAs in serum", "value": 0.773}, {"measurement": "ssc-miR-16 Log2 fold vs Control, DON low", "setting": "miRNAs in serum", "value": 1.217}, {"measurement": "ssc-miR-16 direction of change in serum of DON exposed pigs", "setting": "miRNAs in serum", "value": "up-regulated"}, {"measurement": "ssc-miR-17-5p Log2 fold vs Control, DON high", "setting": "miRNAs in serum", "value": 1.194}, {"measurement": "ssc-miR-17-5p Log2 fold vs Control, DON low", "setting": "miRNAs in serum", "value": "n.s."}, {"measurement": "ssc-miR-92a Log2 fold vs Control, DON high", "setting": "miRNAs in serum", "value": 0.476}, {"measurement": "ssc-miR-92a Log2 fold vs Control, DON low", "setting": "miRNAs in serum", "value": "n.s."}, {"measurement": "ssc-miR-92b-3p Log2 fold vs Control, DON high", "setting": "miRNAs in serum", "value": "n.s."}, {"measurement": "ssc-miR-92b-3p Log2 fold vs Control, DON low", "setting": "miRNAs in serum", "value": "−1.058"}, {"measurement": "ssc-miR-99b Log2 fold vs Control, DON high", "setting": "miRNAs in serum", "value": "−1.226"}, {"measurement": "ssc-miR-99b Log2 fold vs Control, DON low", "setting": "miRNAs in serum", "value": "−1.393"}, {"measurement": "ssc-miR-99b direction of change in serum upon DON treatment", "setting": "miRNAs in serum", "value": "down-regulated"}, {"measurement": "ssc-miR-103 Log2 fold vs Control, DON high", "setting": "miRNAs in serum", "value": "−0.630"}, {"measurement": "ssc-miR-103 Log2 fold vs Control, DON low", "setting": "miRNAs in serum", "value": "n.s."}, {"measurement": "ssc-miR-107 Log2 fold vs Control, DON high", "setting": "miRNAs in serum", "value": "−0.619"}, {"measurement": "ssc-miR-107 Log2 fold vs Control, DON low", "setting": "miRNAs in serum", "value": "n.s."}, {"measurement": "ssc-miR-126-5p Log2 fold vs Control, DON high", "setting": "miRNAs in serum", "value": "n.s."}, {"measurement": "ssc-miR-126-5p Log2 fold vs Control, DON low", "setting": "miRNAs in serum", "value": "−1.298"}, {"measurement": "ssc-miR-128 Log2 fold vs Control, DON high", "setting": "miRNAs in serum", "value": 0.887}, {"measurement": "ssc-miR-128 Log2 fold vs Control, DON low", "setting": "miRNAs in serum", "value": 1.124}, {"measurement": "ssc-miR-128 direction of change in serum of DON exposed pigs", "setting": "miRNAs in serum", "value": "up-regulated"}, {"measurement": "ssc-miR-148a-3p Log2 fold vs Control, DON high", "setting": "miRNAs in serum", "value": 0.521}, {"measurement": "ssc-miR-148a-3p Log2 fold vs Control, DON low", "setting": "miRNAs in serum", "value": "n.s."}, {"measurement": "ssc-miR-192 Log2 fold vs Control, DON high", "setting": "miRNAs in serum", "value": "−0.928"}, {"measurement": "ssc-miR-192 Log2 fold vs Control, DON low", "setting": "miRNAs in serum", "value": "−1.133"}, {"measurement": "ssc-miR-192 direction of change in serum upon DON treatment", "setting": "miRNAs in serum", "value": "down-regulated"}, {"measurement": "ssc-miR-205 Log2 fold vs Control, DON high", "setting": "miRNAs in serum", "value": 5.102}, {"measurement": "ssc-miR-205 Log2 fold vs Control, DON low", "setting": "miRNAs in serum", "value": 5.774}, {"measurement": "ssc-miR-205 direction of change in serum of DON exposed pigs", "setting": "miRNAs in serum", "value": "up-regulated"}, {"measurement": "ssc-miR-339-5p Log2 fold vs Control, DON high", "setting": "miRNAs in serum", "value": "n.s."}, {"measurement": "ssc-miR-339-5p Log2 fold vs Control, DON low", "setting": "miRNAs in serum", "value": 1.346}, {"measurement": "ssc-miR-339 Log2 fold vs Control, DON high", "setting": "miRNAs in serum", "value": "n.s."}, {"measurement": "ssc-miR-339 Log2 fold vs Control, DON low", "setting": "miRNAs in serum", "value": 1.345}, {"measurement": "ssc-miR-361-3p Log2 fold vs Control, DON high", "setting": "miRNAs in serum", "value": "n.s."}, {"measurement": "ssc-miR-361-3p Log2 fold vs Control, DON low", "setting": "miRNAs in serum", "value": 2.023}, {"measurement": "ssc-miR-374a-3p Log2 fold vs Control, DON high", "setting": "miRNAs in serum", "value": "−1.443"}, {"measurement": "ssc-miR-374a-3p Log2 fold vs Control, DON low", "setting": "miRNAs in serum", "value": "−1.271"}, {"measurement": "ssc-miR-374a-3p direction of change in serum upon DON treatment", "setting": "miRNAs in serum", "value": "down-regulated"}, {"measurement": "ssc-miR-451 Log2 fold vs Control, DON high", "setting": "miRNAs in serum", "value": 0.808}, {"measurement": "ssc-miR-451 Log2 fold vs Control, DON low", "setting": "miRNAs in serum", "value": 1.375}, {"measurement": "ssc-miR-451 direction of change in serum of DON exposed pigs", "setting": "miRNAs in serum", "value": "up-regulated"}, {"measurement": "ssc-miR-1388 Log2 fold vs Control, DON high", "setting": "miRNAs in serum", "value": "n.s."}, {"measurement": "ssc-miR-1388 Log2 fold vs Control, DON low", "setting": "miRNAs in serum", "value": "−1.281"}, {"measurement": "effect on serum interleukins IL1β, IL-8, IL-13, tumor necrosis factor or interferon-gamma", "setting": "[3]", "value": "had no effect"}, {"measurement": "doses of DON in feed starting from which feed consumption and weight gain decrease", "setting": "[4]; EFSA summary of multiple feeding trials", "value": "0.6-2.0 ppm"}, {"measurement": "effect on body weight at 3 ppm DON", "setting": "[4]; exposure to 3 ppm DON (Grenier et al. 2011, 2013)", "value": "does not necessarily result in significant effects on body weight"}, {"measurement": "dietary DON concentrations at which a decrease of serum IGF1 was reported", "setting": "[5]", "value": "≥ 3", "unit": "ppm"}]}]}
